Drawing on the supplement of paper PMC10307832, this text covers relative viability for 4 cell lines.

Holding throughout (test): relative viability (nuclei count vs DMSO), 5 days (fraction); higher = more cells survive
Compound in the experiment “Kobe2602 + Tozasertib”: C1=CC(=CC=C1NC(=S)NNC2=C(C=C(C=C2[N+](=O)[O-])C(F)(F)F)[N+](=O)[O-])F [Kobe2602] + Cc1cc(Nc2cc(N3CCN(C)CC3)nc(Sc3ccc(NC(=O)C4CC4)cc3)n2)n[nH]1 [Tozasertib] (partner 0.1 µM)
The gist of the method:
(§1)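 Relative viability equals treated-well nuclei counts divided by vehicle-well nuclei counts. Counts came from 4× images of lung cancer cell lines grown in 1536-well plates for 5 days after pin-tool dosing on the day after seeding. Dosing used one drug alone or a fixed anchor-drug dose plus five library-drug doses (not always all listed) in √10 steps, and values are medians of duplicate plates.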

Compound in the experiment “Zosuquidar + Dasatinib”: O[C@@H](COc1cccc2ncccc12)CN1CCN([C@@H]2c3ccccc3[C@@H]3[C@H](c4ccccc42)C3(F)F)CC1 [Zosuquidar] + Cc1nc(Nc2ncc(C(=O)Nc3c(C)cccc3Cl)s2)cc(N2CCN(CCO)CC2)n1 [Dasatinib] (partner 0.075 µM)
In outline: as §1

Compound in experiment [1]: COc1cc2nccc(Oc3ccc(NC(=O)C4(C(=O)Nc5ccc(F)cc5)CC4)cc3)c2cc1OC [Cabozantinib] + CC(=O)Nc1cccc(-n2c(=O)n(C3CC3)c(=O)c3c(Nc4ccc(I)cc4F)n(C)c(=O)c(C)c32)c1 [Trametinib] (partner 0.02 µM)
The gist of the method: as §1

Compound in experiment [2]: COc1cc2nccc(Oc3ccc(NC(=O)C4(C(=O)Nc5ccc(F)cc5)CC4)cc3)c2cc1OC [Cabozantinib] + Nc1nc2[nH]cc(CCc3ccc(C(=O)N[C@@H](CCC(=O)O)C(=O)O)cc3)c2c(=O)[nH]1 [Pemetrexed] (partner 0.2 µM)
The gist of the method:
as §1

Take EKVX: the relative viability is 0.391 in the experiment with Kobe2602 + Tozasertib (first compound 0.2 µM); 0.284 with Kobe2602 + Tozasertib (first compound 0.6325 µM); 0.362 with Kobe2602 + Tozasertib (first compound 2 µM); 0.365 in the experiment with Kobe2602 + Tozasertib (first compound 6.325 µM); 0.278 with Kobe2602 + Tozasertib (first compound 20 µM); 0.694 in the experiment with Zosuquidar + Dasatinib (first compound 0.01 µM). The relative viability in the experiment with Zosuquidar + Dasatinib (first compound 0.03162 µM) was determined as 0.38; in the experiment with Zosuquidar + Dasatinib (first compound 0.1 µM), 0.558; with Zosuquidar + Dasatinib (first compound 0.3162 µM), 0.657; in the experiment with Zosuquidar + Dasatinib (first compound 1 µM) it was 0.488; in experiment [1] (first compound 0.02 µM), 0.377; in experiment [1] (first compound 0.06325 µM), 0.406. Further, the relative viability in experiment [1] (first compound 0.2 µM) is 0.249; in experiment [1] (first compound 0.6325 µM), 0.409; in experiment [1] (first compound 2 µM), 0.351; in experiment [2] (first compound 0.02 µM), 0.376; in experiment [2] (first compound 0.06325 µM), 0.477; in experiment [2] (first compound 0.2 µM), 0.352. In addition, the figures for the relative viability in experiment [2] (first compound 0.6325 µM) and in experiment [2] (first compound 2 µM) were 0.467 and 0.461, respectively.

For EMC-BAC-2, the relative viability with Kobe2602 + Tozasertib (first compound 0.2 µM) is 0.286; with Kobe2602 + Tozasertib (first compound 0.6325 µM) it was 0.297; in the experiment with Kobe2602 + Tozasertib (first compound 2 µM) it was 0.286; with Kobe2602 + Tozasertib (first compound 6.325 µM), 0.333; with Kobe2602 + Tozasertib (first compound 20 µM) it was 0.32; with Zosuquidar + Dasatinib (first compound 0.01 µM), 0.325. Moreover, the relative viability in the experiment with Zosuquidar + Dasatinib (first compound 0.03162 µM) worked out at 0.34; with Zosuquidar + Dasatinib (first compound 0.1 µM), 0.373; with Zosuquidar + Dasatinib (first compound 0.3162 µM), 0.339; with Zosuquidar + Dasatinib (first compound 1 µM), 0.325; in experiment [1] (first compound 0.02 µM) it was 0.912; in experiment [1] (first compound 0.06325 µM), 0.949. In addition, the relative viability is 0.823 in experiment [1] (first compound 0.2 µM); 0.854 in experiment [1] (first compound 0.6325 µM); 0.934 in experiment [1] (first compound 2 µM); 0.47 in experiment [2] (first compound 0.02 µM); 0.456 in experiment [2] (first compound 0.06325 µM); 0.529 in experiment [2] (first compound 0.2 µM). Moreover, the relative viability in experiment [2] (first compound 0.6325 µM) is 0.456; in experiment [2] (first compound 2 µM), 0.449.

Consider EPLC-272H, for which the relative viability with Kobe2602 + Tozasertib (first compound 0.2 µM) was 0.224; with Kobe2602 + Tozasertib (first compound 0.6325 µM), 0.305; with Kobe2602 + Tozasertib (first compound 2 µM), 0.291; in the experiment with Kobe2602 + Tozasertib (first compound 6.325 µM) it was 0.302; with Kobe2602 + Tozasertib (first compound 20 µM), 0.409; with Zosuquidar + Dasatinib (first compound 0.01 µM) it was 0.381. In addition, the relative viability with Zosuquidar + Dasatinib (first compound 0.03162 µM) is 0.316; with Zosuquidar + Dasatinib (first compound 0.1 µM), 0.331; with Zosuquidar + Dasatinib (first compound 0.3162 µM), 0.325; in the experiment with Zosuquidar + Dasatinib (first compound 1 µM) it was 0.389; in experiment [1] (first compound 0.02 µM), 0.275; in experiment [1] (first compound 0.06325 µM) it was 0.318. Further, the relative viability worked out at 0.275 in experiment [1] (first compound 0.2 µM); 0.246 in experiment [1] (first compound 0.6325 µM); 0.245 in experiment [1] (first compound 2 µM); 0.368 in experiment [2] (first compound 0.02 µM); 0.37 in experiment [2] (first compound 0.06325 µM); 0.301 in experiment [2] (first compound 0.2 µM). The values for the relative viability in experiment [2] (first compound 0.6325 µM) and in experiment [2] (first compound 2 µM) were 0.318 and 0.282, respectively.

Regarding H3255, the relative viability in the experiment with Kobe2602 + Tozasertib (first compound 0.2 µM) worked out at 0.628; with Kobe2602 + Tozasertib (first compound 0.6325 µM), 0.612; with Kobe2602 + Tozasertib (first compound 2 µM) it was 0.488; in the experiment with Kobe2602 + Tozasertib (first compound 6.325 µM), 0.55; with Kobe2602 + Tozasertib (first compound 20 µM), 0.607; in the experiment with Zosuquidar + Dasatinib (first compound 0.01 µM), 0.346. Also, the relative viability in the experiment with Zosuquidar + Dasatinib (first compound 0.03162 µM) was determined as 0.273; with Zosuquidar + Dasatinib (first compound 0.1 µM), 0.341; in the experiment with Zosuquidar + Dasatinib (first compound 0.3162 µM), 0.727; with Zosuquidar + Dasatinib (first compound 1 µM), 0.303; in experiment [1] (first compound 0.02 µM), 0.687; in experiment [1] (first compound 0.06325 µM) it was 0.639. Further, the relative viability is 0.749 in experiment [1] (first compound 0.6325 µM); 0.64 in experiment [1] (first compound 2 µM); 0.52 in experiment [2] (first compound 0.02 µM); 0.646 in experiment [2] (first compound 0.06325 µM); 0.57 in experiment [2] (first compound 0.6325 µM); 0.575 in experiment [2] (first compound 2 µM).
